# Measurements taken from patent US12612424B2, “HPK1 inhibitors and uses thereof” (Regor Pharmaceuticals, Inc., priority 2019, dated 2026).
# Columns and labels:
# JAK3 = target: T1, JAK3 (Homo sapiens, UniProt P52333); assay: JAK3 biochemical assay (ADP-GLO Kinase Assay); conditions: for IC50: B*: testing performed in a first testing facility, read-out: JAK3 IC50 (nM) Relative, B*; for JAKs/HPK1 IC50 Ratio, B*: ratio of JAK3 IC50 to HPK1 IC50, first testing facility
# T1 construct: purchased Thermo fisher PV3855
# Experimental: Biology Example 4 JAK3 Biochemical Assay
# This example used the ADP-GLO™ Kinase Assay to measure the effect of potential HPK1 inhibitor compounds on JAK3 kinase activity. An exemplary experimental setting is described below, though minor adjustments can be made in individual assays.
# 3. Procedures • 1. Prepare JAK3 kinase buffer • Freshly adding DTT and BSA into Buffer (Final Conc.: 40 mM Tris pH7.5; 20 mM MgCl2, 0.1 mg/ml BSA, 50 μM DTT).
# • 2. Compounds Preparation • For tested compounds: compounds were diluted to 1 mM, by mixing 5 μL of 10 mM compound stocks to 45 μL DMSO. The compounds solutions were then serially diluted 3-fold for 10 doses. The top compound concentration was 1 mM (100×), DMSO concentration was 100%. • 50 nL of each of 10 doses of diluted compound were added to 384-well assay plate (Corning #4512) by ECHO. • For positive control, 50 nL of 1 mM reference compound were added to 384-well assay plate (Corning #4512) by ECHO. • For negative control: 50 nL of DMSO was transferred into 384-well assay plate as a negative control. • The assay plate was centrifuged at 1,500 rpm for 1 minute. • 3. Compounds were Transferred by ECHO Following the Layout Below: • Reference and test compounds 1-15: serial 3-fold dilution from 10 μM to 0.508 nM (10 doses); negative control is 0.78 ng JAK3, 4 μM ATP & 0.2 μg/μL poly, 1% DMSO; positive control is the top dose of the reference compound, 0.78 ng JAK3, 0.2 μg/μL Poly(E4Y1), 4 μMATP, 1% DMSO. • 4. Add 2.5 μL/well of 2×JAK3 working solution using pipette (Thermo, 30 μL multi-channel), Centrifuge at 1,500 rpm for 1 minute. • 5. Add 2.5 μL/well of 2×ATP-Poly(E4Y1) working mixture using pipette (Thermo, 30 μL multi-channel), Centrifuge at 1,500 rpm for 1 minute. • 6. Incubate the assay plate at 25° C. for 60 min. • 7. Add 5 μL/well ADP-GLO™ Reagent by BRAVO to stop the kinase reaction and deplete the unconsumed ATP after 1 hour. Centrifuge at 1,500 rpm for 1 minute. Incubate at 25° C. for 40 min. • 8. Add 10 uL of Kinase Detection Reagent by BRAVO to convert ADP to ATP. Centrifuge at 1,500 rpm for 1 minute. Incubate at 25° C. for 40 min. • 9. Record luminescence signal on an Envision plate reader (384-USL). • 10. Process data using XL-fit. Inhibition %=[1-(test well−Negative control)/(positive control−Negative control)]*100%. 5. Data Analysis
# The percent (%) inhibition at each concentration of compound is calculated based on and relative to the signal in the Negative and Positive control wells contained within each assay plate. The Negative control wells served as 0% inhibition, and the Positive control wells served as 100% inhibition. The concentrations and % inhibition values for tested compounds are plotted and the concentration of compound required for 50% inhibition (IC50) is determined with a Three-parameter logistic dose response equation. The endpoint value (IC50) for the reference peptide/compound is evaluated in each experiment as a quality control measure. If the endpoint value was within 3-fold of the expected value then the experiment was deemed acceptable.
# HPK1 = HPK1 (Homo sapiens, UniProt Q92918); assay: HPK1 biochemical assay (ADP-GLO Kinase Assay); conditions: B*: testing performed in a first testing facility; read-out: HPK1 IC50 (nM) Relative, B*
# Source text: IC50 values of any compounds can be determined accordingly over a range of inhibitor concentrations. In addition, the inhibitory effect of the compounds can also be assess using a biological assay, to determine the effect of the compounds on cytokine secretion by T cells following TCR and CD28 stimulation.
# Biology Example 1 HPK1 Biochemical Assay
# This example used the ADP-GLO™ Kinase Assay to measure the effect of potential HPK1 inhibitor compounds on HPK1 kinase activity.
# The ADP-GLO™ Kinase Assay (Promega Corp., Madison, WI) measures ADP formed from a kinase reaction. According to the manufacture, the ADP formed in a kinase assay is first converted into ATP, which is then used to generate light in a luciferase reaction. The luminescence generated correlates with kinase activity. An exemplary experimental setting is described below, though minor adjustments can be made in individual assays.
# Serial 3-fold dilution of compounds from 10 μM (top concentration) to 0.508 nM (lowest concentration). Positive control is 10 μM Reference+enzyme+substrate. Negative control is 1% DMSO+enzyme+substrate.
# • 1. Buffer Preparation • 40 mM Tris pH7.5; 20 mM MgCl2, 0.1 mg/ml BSA, 50 μM DTT Buffer Stock
# Add 20 mL 1M Tris and 10 mL 1M MgCl2 to 470 mL ddH2O to get buffer stock, and stock at RT. • 2. Preparing Fresh 1* Assay Buffer
# • 3. Compounds Preparation • 1) The compounds were diluted to 1 mM, by mixing 10 μL of 10 mM respective compound stocks with 90 μL of DMSO. • 2) The compounds were then diluted 3-fold for 10 doses (5 μL to 10 μL dilution) by BRAVO. The top compound conc. was 1 mM (100×), DMSO Conc. was 100%. • 3) Transfer 100 nL of each diluted compound sample to 384-well plate (Corning-4512) by ECHO. • 4) Centrifuge the plate at 1,500 rpm for 1 minute. • 4. Preparation of 2×ATP-MBP Mixture: • 20 μM ATP, 0.2 μg/μL MBP in Kinase Buffer (final concentration: 10 μM ATP, 0.1 MBP)
# • 5. Preparation of 2×HPK1 working solution with assay buffer. • HPK1 final concentration was 0.6 ng/μL. […] Incubate at 25° C. for 40 min. • 11. Record luminescence signal on an Envision plate reader (384-CTG). 5. Data Analysis
# The percent (%) inhibition at each concentration of compound is calculated based on and relative to the signal in the High and Low control wells contained within each assay plate. […] The concentrations and % inhibition values for tested compounds were plotted and the concentration of compound required for 50% inhibition (IC50) was determined with a Three-parameter logistic dose response equation. The endpoint value (IC50) for the reference peptide/compound was evaluated in each experiment as a quality control measure. If the endpoint value was within 3-fold of the expected value, then the experiment was deemed acceptable.
# Chain of HPK1 (Q92918 whole entry): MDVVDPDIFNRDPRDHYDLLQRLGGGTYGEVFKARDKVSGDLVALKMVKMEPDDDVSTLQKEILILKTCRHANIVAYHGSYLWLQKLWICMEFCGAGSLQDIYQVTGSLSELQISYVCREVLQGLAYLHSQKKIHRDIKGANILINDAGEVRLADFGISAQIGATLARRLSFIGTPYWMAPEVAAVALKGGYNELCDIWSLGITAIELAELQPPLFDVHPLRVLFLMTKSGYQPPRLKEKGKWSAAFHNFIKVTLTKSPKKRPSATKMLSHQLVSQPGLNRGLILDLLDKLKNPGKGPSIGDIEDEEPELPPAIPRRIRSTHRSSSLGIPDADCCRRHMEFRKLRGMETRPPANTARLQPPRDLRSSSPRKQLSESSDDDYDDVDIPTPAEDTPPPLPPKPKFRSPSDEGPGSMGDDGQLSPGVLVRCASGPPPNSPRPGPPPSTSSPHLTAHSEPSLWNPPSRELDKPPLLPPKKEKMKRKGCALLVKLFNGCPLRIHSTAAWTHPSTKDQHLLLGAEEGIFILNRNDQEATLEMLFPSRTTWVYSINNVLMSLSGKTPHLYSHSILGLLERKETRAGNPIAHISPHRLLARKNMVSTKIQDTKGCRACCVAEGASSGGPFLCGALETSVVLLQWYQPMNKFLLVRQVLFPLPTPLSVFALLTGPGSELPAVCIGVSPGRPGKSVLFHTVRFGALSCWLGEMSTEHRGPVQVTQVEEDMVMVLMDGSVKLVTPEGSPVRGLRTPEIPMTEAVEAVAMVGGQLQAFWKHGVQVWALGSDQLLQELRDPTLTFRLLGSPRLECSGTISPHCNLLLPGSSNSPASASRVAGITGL
# T1 sequence (P52333 781-1124 limits assumed): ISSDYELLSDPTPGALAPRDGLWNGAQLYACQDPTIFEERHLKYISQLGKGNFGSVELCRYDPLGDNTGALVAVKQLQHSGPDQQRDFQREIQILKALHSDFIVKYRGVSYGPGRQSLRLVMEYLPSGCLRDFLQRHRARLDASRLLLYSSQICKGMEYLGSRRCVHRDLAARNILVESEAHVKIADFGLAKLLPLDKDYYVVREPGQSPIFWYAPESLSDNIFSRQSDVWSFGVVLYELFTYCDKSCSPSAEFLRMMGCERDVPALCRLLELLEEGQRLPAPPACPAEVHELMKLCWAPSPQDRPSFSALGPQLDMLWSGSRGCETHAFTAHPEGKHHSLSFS
IC50 (JAK3) [nM],"JAKs/HPK1 IC50 Ratio, B* (JAK3)",IC50 (HPK1) [nM],Structure (SMILES)
> 1000,449,≤ 100,"COc1cc2c(cc1Nc1ncc(Cl)c(-n3cc(NS(C)(=O)=O)c4ccccc43)n1)CN(C)CC2 [Example 94, N-(1-(5-chloro-2-((6-methoxy-2-methyl-1,2,3,4-tetrahydroisoquinolin-7-yl)amino)pyrimidin-4-yl)-1H-indol-3-yl)methanesulfonamide]"
> 1000,421,≤ 100,"COc1cc2c(cc1Nc1ncc3cc(C(=O)O)n(-c4ccccc4)c3n1)CN(C)CC2 [Example 165, 2-((6-Methoxy-2-methyl-1,2,3,4-tetrahydroisoquinolin-7-yl)amino)-7-phenyl-7H-pyrrolo[2,3-d]pyrimidine-6-carboxylic acid]"
≤ 100,20,≤ 100,COc1cc2c(cc1Nc1ncc(Cl)c(N3CC(CO)(C(=O)O)c4ccccc43)n1)CN(C)CC2 (stereo not shown) [Example 124]
≤ 100,11,≤ 100,"COc1ccc2c(c1)C(C(=O)O)CN2c1nc(Nc2cc3c(cc2OC)CCN(C)C3)ncc1Cl (stereo not shown) [Example 106, 1-(5-Chloro-2-((6-methoxy-2-methyl-1,2,3,4-tetrahydroisoquinolin-7-yl)amino)pyrimidin-4-yl)-5-methoxyindoline-3-carboxylic acid]"
> 1000,–,≤ 100,"COc1cc2c(cc1Nc1ncc(Cl)c(N3CCCc4ccccc43)n1)CN(C)CC2 [Example 6, N-(5-chloro-4-(3,4-dihydroquinolin-1(2H)-yl)pyrimidin-2-yl)-6-methoxy-2-methyl-1,2,3,4-tetrahydroisoquinolin-7-amine]"
> 1000,3,100 to 500,"CCc1c[nH]c2ncc(-c3ccc(N4CCCC4=O)c(P(C)(C)=O)c3)cc12 [Example 66, 1-(2-(Dimethylphosphoryl)-4-(3-ethyl-1H-pyrrolo[2,3-b]pyridin-5-yl)phenyl)pyrrolidin-2-one]"
> 1000,4,500 to 1000,"CCc1c[nH]c2ncc(-c3ccc(NC4COC4)c(P(C)(C)=O)c3)cc12 [Example 76, (5-(3-Ethyl-1H-pyrrolo[2,3-b]pyridin-5-yl)-2-(oxetan-3-ylamino)phenyl)dimethylphosphine oxide]"
> 1000,>426,≤ 100,CCOC(=O)Cc1cn(-c2nc(Nc3cc4c(cc3OC)CCN(C)C4)ncc2Cl)c2ccccc12 [Example 132]
> 1000,51,≤ 100,"CCc1c[nH]c2ncc(-c3ccc(F)c(P(C)(C)=O)c3)cc12 [Example 51, (5-(3-Ethyl-1H-pyrrolo[2,3-b]pyridin-5-yl)-2-fluorophenyl)dimethylphosphine oxide]"
> 1000,>18,500 to 1000,"COc1cc2c(cc1Nc1ncc3ccn(-c4ccccc4P(C)(C)=O)c3n1)CN(C)CC2 [Example 39, (2-(2-((6-Methoxy-2-methyl-1,2,3,4-tetrahydroisoquinolin-7-yl)amino)-7H-pyrrolo[2,3-d]pyrimidin-7-yl)phenyl)dimethylphosphine oxide]"
> 1000,–,100 to 500,"COc1cc2c(cc1Nc1ncc3c(n1)n(-c1ccccc1)c(=O)n3C)CN(C)CC2 [Example 166, 2-((6-Methoxy-2-methyl-1,2,3,4-tetrahydroisoquinolin-7-yl)amino)-7-methyl-9-phenyl-7,9-dihydro-8H-purin-8-one]"
> 1000,>118,≤ 100,COC(=O)c1cn(-c2nc(Nc3cc4c(cc3OC)CCN(C)C4)ncc2Cl)c2ccccc12 [Example 114]
> 1000,150,≤ 100,"COc1cc2c(cc1Nc1ncc(Cl)c(N3CC(C(=O)O)c4ccccc43)n1)CN(C)CC2 (single isomer, unassigned) [Example 95]"
> 1000,>15,500 to 1000,"CCc1c[nH]c2ncc(-c3ccc(C(F)(F)F)c(P(C)(C)=O)c3)cc12 [Example 78, (5-(3-Ethyl-1H-pyrrolo[2,3-b]pyridin-5-yl)-2-(trifluoromethyl)phenyl)dimethylphosphine oxide]"
> 1000,>22,100 to 500,"COc1cc2c(cc1Nc1ncc3c(n1)N(c1ccccc1P(C)(C)=O)CCO3)CN(C)CC2 [Example 47, (2-(2-((6-Methoxy-2-methyl-1,2,3,4-tetrahydroisoquinolin-7-yl)amino)-6H-pyrimido[5,4-b][1,4]oxazin-8(7H)-yl)phenyl)dimethylphosphine oxide]"
> 1000,>1172,≤ 100,"COc1cc2c(cc1Nc1ncc(Cl)c(-n3cc(S(C)(=O)=O)c4ccccc43)n1)CN(C)CC2 [Example 80, N-(5-chloro-4-(3-(methylsulfonyl)-1H-indol-1-yl)pyrimidin-2-yl)-6-methoxy-2-methyl-1,2,3,4-tetrahydroisoquinolin-7-amine]"
> 1000,944,≤ 100,"COc1cc2c(cc1Nc1ncc(Cl)c(N3CCc4c(OC)cccc43)n1)CN(C)CC2 [Example 89, N-(5-chloro-4-(4-methoxyindolin-1-yl)pyrimidin-2-yl)-6-methoxy-2-methyl-1,2,3,4-tetrahydroisoquinolin-7-amine]"
> 1000,>10,500 to 1000,"CCc1c[nH]c2ncc(-c3ccc(CN(C)C)c(P(C)(C)=O)c3)cc12 [Example 65, (2-((Dimethylamino)methyl)-5-(3-ethyl-1H-pyrrolo[2,3-b]pyridin-5-yl)phenyl)dimethylphosphine oxide]"
